Measurements taken from patent EP3498266A1, “FORMULATIONS OF COPANLISIB” (priority 2017, dated 2019).
Read-outs that look alike come from different tables or passages of the source.

Columns and labels:
[1] = Solubility of copanlisib dihydrochloride, flask method, HPLC; format: physicochemical; details: for Descriptive term: according to Ph. Eur./USP; for solubility at 19 h: 25 °C, thermodynamic from solid
Description: The suspension was centrifuged before HPLC analysis.

[2] = tested on: indolent B-cell non-Hodgkin lymphoma
Description: Methods: Patients with indolent B-cell non-Hodgkin lymphoma (4 subtypes: follicular (FL), marginal zone (MZL), small lymphocytic (SLL) and lymphoplasmacytoid/Waldenström macroglobulinemia (LPL-WM)) and relapsed after, or refractory to, ≥2 prior lines of treatment were eligible. […] Copanlisib (60 mg, I.V.) was intermittently administered on days 1, 8 and 15 of a 28-day cycle.

[3] = Hydrolytic (chemical) stability in aqueous solution, HPLC; format: physicochemical
Description: The different aqueous solutions (0.05 % copanlisib; after addition of 50 % 2-propanol, [buffer solution filtered with 0.5µm membrane filter]) were stored at 25°C and 70°C for 24 h and one week. An analytical HPLC-method has been developed to determine assay and organic impurities of copanlisib as well as degradation products. Table 2 : Results on hydrolytic stability of copanlisib

[4] = full analysis set, 142 patients

COc1c(OCCCN2CCOCC2)ccc2c1N=C(NC(=O)c1cnc(N)nc1)N1CCN=C21.Cl.Cl [copanlisib dihydrochloride, 2-amino-N-[7-methoxy-8-(3-morpholin-4-ylpropoxy)-2,3-dihydroimidazo[1,2-c]quinazolin-5-yl]pyrimidine-5-carboxamide dihydrochloride]
Descriptive term ([1]; 0.1 M Hydrochloric acid): freely soluble
solubility at 19 h ([1]; 0.1 M hydrochloric acid, simulated gastric fluid): 190 mg/mL
solubility at 19 h ([1]; aqueous buffer, Buffer (citrate) pH 3): 250 mg/mL
solubility at 19 h ([1]; aqueous buffer, Buffer (citrate) pH 4): 25 mg/mL
solubility at 19 h ([1]; aqueous buffer, Buffer (citrate) pH 5): 0.62 mg/mL
solubility at 19 h ([1]; aqueous buffer, Buffer (phosphate) pH 1): 510 mg/mL
solubility at 19 h ([1]; aqueous buffer, Buffer (phosphate) pH 2): 250 mg/mL
solubility at 19 h ([1]; aqueous buffer, Buffer (phosphate) pH 6): 0.001 mg/mL
Descriptive term ([1]; Buffer (citrate) pH 3): freely soluble
Descriptive term ([1]; Buffer (citrate) pH 4): soluble
Descriptive term ([1]; Buffer (citrate) pH 5): very slightly soluble
Descriptive term ([1]; Buffer (phosphate) pH 1): freely soluble
Descriptive term ([1]; Buffer (phosphate) pH 2): freely soluble
Descriptive term ([1]; Buffer (phosphate) pH 6): practically insoluble
Descriptive term ([1]; Buffer (phosphate) pH 7): practically insoluble
Descriptive term ([1]; Water): freely soluble
solubility at 19 h ([1]; water): 230 mg/mL

COc1c(OCCCN2CCOCC2)ccc2c1N=C(NC(=O)c1cnc(N)nc1)N1CCN=C21 [copanlisib, 2-amino-N-[7-methoxy-8-(3-morpholin-4-ylpropoxy)-2,3-dihydroimidazo[1,2-c]quinazolin-5-yl]pyrimidine-5-carboxamide]
CR ([2]; FL subset): 14.4%
ORR ([2]; FL subset): 58.7%
PR ([2]; FL subset): 44.2%
estimated Kaplan-Meier (KM) median duration of response ([2]; FL subset (range 0-687)): 370 days
CR ([2]; MZL subset): 8.7%
ORR ([2]; MZL subset): 69.6%
PR ([2]; MZL subset): 60.9%
AEs of interest: colitis ([2]; all grade): 0.7%
AEs of interest: diarrhea ([2]; all grade): 18%
AEs of interest: lung infection ([2]; all grade): 14%
AEs of interest: neutropenia ([2]; all grade): 25%
AEs of interest: pneumonitis ([2]; all grade): 7%
treatment-related adverse events: hypertension ([2]; all grade): 29%
treatment-related adverse events: transient hyperglycemia ([2]; all grade, 60 mg I.V. days 1, 8, 15 of 28-day cycle): 49%
Laboratory toxicities: alanine aminotransferase ([2]; all-grade): 23%
Laboratory toxicities: aspartate aminotransferase ([2]; all-grade): 28%
Median overall survival ([2]; at the time of primary analysis): had not yet been reached
complete response (CR) ([2]; full analysis set): 12.0%
estimated Kaplan-Meier (KM) median duration of response ([2]; full analysis set (range 0-687)): 687 days
colonic perforations [2, 4]: No colonic perforations occurred
deaths [2, 4]: 6
non-fatal opportunistic infections [2, 4]: two
AEs of interest: colitis ([2]; human, in vivo): 0.7%
AEs of interest: diarrhea ([2]; human, in vivo): 4%
AEs of interest: lung infection ([2]; human, in vivo): 11%
AEs of interest: neutropenia ([2]; human, in vivo): 19%
AEs of interest: pneumonitis ([2]; human, in vivo): 1.4%
Laboratory toxicities: alanine aminotransferase ([2]; human, in vivo): 19%
Laboratory toxicities: aspartate aminotransferase ([2]; human, in vivo): 25%
treatment-related adverse events: hypertension ([2]; human, in vivo): 23%
treatment-related adverse events: transient hyperglycemia ([2]; human, in vivo): 40%
deaths attributed to copanlisib ([2]; lung infection, respiratory failure, and a thromboembolic event): 3
KM-estimate of median PFS ([2]; range 0-736): 340 days
Appearance ([3]; 0.1M HCl, 1 week, 25°C): slightly colored solution
Appearance ([3]; 0.1M HCl, 1 week, 70°C): slightly colored solution
Appearance ([3]; 0.1M HCl, 24 h, 25°C): slightly colored solution
Appearance ([3]; 0.1M HCl, 24h, 70°C): slightly colored solution
Appearance ([3]; 0.1M HCl, Initial): slightly colored solution
Appearance ([3]; 0.1 M NaOH, 1week, 25°C): slightly colored solution
Appearance ([3]; 0.1 M NaOH, 1week, 70°C): slightly colored solution
Appearance ([3]; 0.1 M NaOH, 24 h, 25°C): slightly colored solution
Appearance ([3]; 0.1 M NaOH, 24h, 70°C): slightly colored solution
Appearance ([3]; 0.1 M NaOH, Initial): slightly colored solution
Appearance ([3]; Buffer pH 7, 1 week, 25°C): slightly colored turbid solution
Appearance ([3]; Buffer pH 7, 1 week, 70°C): slightly colored solution
Appearance ([3]; Buffer pH 7, 24 h, 25°C): slightly colored turbid solution
Appearance ([3]; Buffer pH 7, 24 h, 70°C): slightly colored solution
Appearance ([3]; Buffer pH 7, Initial): slightly colored turbid solution
Appearance ([3]; Water, 1 week, 25°C): slightly colored solution
Appearance ([3]; Water, 1 week, 70°C): slightly colored solution
Appearance ([3]; Water, 24 h, 25°C): slightly colored solution
Appearance ([3]; Water, 24h, 70°C): slightly colored solution
Appearance ([3]; Water, Initial): slightly colored solution
